Measurements from paper PMC6651170, “New HSV-1 Anti-Viral 1′-Homocarbocyclic Nucleoside Analogs with an Optically Active Substituted Bicyclo[2.2.1]Heptane Fragment as a Glycoside Moiety” (Molecules, 2019).
≈ marks a conversion by molar mass, not a printed value. Like-named read-outs stand apart in the source and are kept apart here.

Columns and labels:
[1] = tested on: Influenza virus (Flu A, strain A/Puerto Rico/8/34 (H1N1)); experiment: microbe, parasite or virus in culture; type: cell-based; settings: read-out: IC50 Influenza Virus
[2] = tested on: herpes simplex virus type 1 (HSV-1); experiment: microbe, parasite or virus in culture; type: cell-based; settings: for IC50: read-out: IC50 Herpes Simplex Virus Type 1
[3] = tested on: human adenovirus type 5 (AdV5); experiment: microbe, parasite or virus in culture; type: cell-based; settings: read-out: IC50 Human Adenovirus Type 5
Yellow Fever Virus = experiment: microbe, parasite or virus in culture; type: cell-based; settings: read-out: IC50 Yellow Fever Virus
Chikungunya Virus = experiment: microbe, parasite or virus in culture; type: cell-based; settings: read-out: IC50 Chikungunya Virus
Enterovirus 71 = experiment: microbe, parasite or virus in culture; type: cell-based; settings: read-out: IC50 Enterovirus 71
in vitro [4] = settings: dog
in vitro [5] = settings: African green monkey
in vitro [6] = experiment: in vitro
in vitro [7] = experiment: in vitro; remark: listed apart in the source
in vitro [8] = experiment: in vitro; remark: listed apart in the source
HCMV = settings: read-out: IC50 against HCMV; cited from earlier work
EpsteinBarr virus = settings: read-out: IC50 against EpsteinBarr virus; cited from earlier work
VZV = settings: cited from earlier work
herpes = settings: cited from earlier work
Molt4/C8 = settings: cited from earlier work
L1210/0 = settings: cited from earlier work
VZV/TK^- strain = settings: read-out: EC50 against VZV/TK- strain; cited from earlier work
cytomegalovirus AD169 = settings: read-out: EC50 against cytomegalovirus AD169 strain; cited from earlier work
[9] = tested on: cytomegalovirus DAVIS 07/1; settings: read-out: EC50 against cytomegalovirus DAVIS 07/1 strain; cited from earlier work
coxsackievirus B4 = settings: cited from earlier work
cells [10] = tested on: cells
cells [11] = tested on: cells; remark: listed apart in the source
cells [12] = tested on: cells; remark: listed apart in the source
[13] = unidentified influenza virus, H1N1, MDCK, 48 h
[14] = Human alphaherpesvirus 1, Vero, 72 h
[15] = Human mastadenovirus C, Vero, 72 h
[16] = CC50 (Herpes Simplex Virus Type 1)

| Molecule | IC50 [1, 13] | IC50 [2, 14] | IC50 [3, 15] | IC50 (Yellow Fever Virus; Yellow fever virus) | IC50 (Chikungunya Virus; Chikungunya virus) | IC50 (Enterovirus 71; Enterovirus A) | CC50 (in vitro [4]) | CC50 (in vitro [5]; [16]) | CC50 (in vitro [5]; CC50 (Human Adenovirus Type 5)) | CC50 (in vitro [6]) | CC50 (in vitro [7]) | CC50 (in vitro [8]) | other results |
| --- | --- | --- | --- | --- | --- | --- | --- | --- | --- | --- | --- | --- | --- |
| OC1C[C@H]2[C@H](Cn3cnc4c(NC5CC5)ncnc43)[C@@H]1C[C@@H]2Cl (stereo partly drawn) [Compound 6b, (1S,4S,5S,7R)-5-Chloro-7-((6-(cyclopropylamino)-9H-purin-9-yl)methyl)bicyclo[2.2.1]heptan-2-ol] | 419 ± 51 µM | 599 ± 64 µM | > 899 µM | > 100 µM | > 100 µM | > 100 µM | 752 ± 44 µM | > 773 µM | > 899 µM | > 100 µM | > 100 µM | > 100 µM |  |
| OC1C[C@H]2[C@H](Cn3cnc4c(NC5CCCC5)ncnc43)[C@@H]1C[C@@H]2Cl (stereo partly drawn) [Compound 6c, (1S,4S,5S,7R)-5-Chloro-7-((6-(cyclopentylamino)-9H-purin-9-yl)methyl)bicyclo[2.2.1]heptan-2-ol] | > 83 µM | 47 ± 6 µM | > 276 µM | > 100 µM | > 100 µM | 28 ± 16 µM | 227 ± 19 µM | 605 ± 42 µM | 824 ± 91 µM | > 100 µM | > 100 µM | > 100 µM | activity against HSV-1 in words [2]: active against herpes |
| OC1C[C@H]2[C@H](Cn3cnc4c(NC5CCCCC5)ncnc43)[C@@H]1C[C@@H]2Cl (stereo partly drawn) [Compound 6d, (1S,4S,5S,7R)-5-Chloro-7-((6-(cyclohexylamino)-9H-purin-9-yl)methyl)bicyclo[2.2.1]heptan-2-ol] | > 27 µM | 21 ± 4 µM | 123 ± 14 µM | > 100 µM | > 100 µM | 28 ± 13 µM | 42 ± 3 µM | 521 ± 48 µM | 697 ± 75 µM | > 100 µM | > 100 µM | > 100 µM | activity against HSV-1 in words [2]: active against herpes |
| OC[C@@H](Cc1ccccc1)Nc1ncnc2c1ncn2C[C@H]1[C@@H]2CC(O)[C@H]1C[C@@H]2Cl (stereo partly drawn) [Compound 6e, (1S,4S,5S,7R)-5-Chloro-7-((6-(((R)-1-hydroxy-3-phenylpropan-2-yl)amino)-9H-purin-9-yl)methyl)bicyclo[2.2.1]heptan-2-ol] | > 26 µM | 380 ± 46 µM | > 701 µM | > 100 µM | > 100 µM | > 100 µM | 188 ± 22 µM | > 608 µM | > 701 µM | > 100 µM | > 100 µM | > 100 µM |  |
| CN1CCN(c2ncnc3c2ncn3C[C@H]2[C@@H]3CC(O)[C@H]2C[C@@H]3Cl)CC1 (stereo partly drawn) [Compound 6f, (1S,4S,5S,7R)-5-Chloro-7-((6-(4-methylpiperazin-1-yl)-9H-purin-9-yl)methyl)bicyclo[2.2.1]heptan-2-ol] | 241 ± 30 µM | 28 ± 4 µM | 105 ± 11 µM | > 100 µM | > 100 µM | > 100 µM | > 796 µM | > 719 µM | > 796 µM | > 100 µM | > 100 µM | > 100 µM | activity against HSV-1 in words [2]: active against herpes |
| CN1CCN(Nc2ncnc3c2ncn3C[C@H]2[C@@H]3CC(O)[C@H]2C[C@@H]3Cl)CC1 (stereo partly drawn) [Compound 6g, (1S,4S,5S,7R)-5-Chloro-7-((6-((4-methylpiperazin-1-yl)amino)-9H-purin-9-yl)methyl)bicyclo[2.2.1]heptan-2-ol] | > 766 µM | 540 ± 32 µM | > 766 µM | > 100 µM | > 100 µM | > 100 µM | > 766 µM | > 766 µM | > 766 µM | > 100 µM | > 100 µM | > 100 µM | activity against HSV-1 in words [2]: complete loss of virus inhibition |
| OC1C[C@H]2[C@H](Cn3cnc4c(N5CCOCC5)ncnc43)[C@@H]1C[C@@H]2Cl (stereo partly drawn) [Compound 6h, (1S,4S,5S,7R)-5-Chloro-7-((6-morpholino-9H-purin-9-yl)methyl)bicyclo[2.2.1]heptan-2-ol] | 196 ± 15 µM | 341 ± 40 µM | > 600 µM | > 100 µM | > 100 µM | > 100 µM | > 600 µM | > 600 µM | > 600 µM | > 100 µM | > 100 µM | > 100 µM |  |
| Oc1ccc(CCNc2ncnc3c2ncn3C[C@H]2[C@@H]3CC(O)[C@H]2C[C@@H]3Cl)cc1 (stereo partly drawn) [Compound 6i, (1S,4S,5S,7R)-5-Chloro-7-((6-((4-hydroxyphenethyl)amino)-9H-purin-9-yl)methyl)bicyclo[2.2.1]heptan-2-ol] | > 72 µM | 155 ± 13 µM | > 72 µM | > 100 µM | > 100 µM | 79 µM | 124 ± 9 µM | 447 ± 31 µM | 217 ± 17 µM | > 100 µM | > 100 µM | > 100 µM |  |
| OC1C[C@H]2[C@H](Cn3cnc4c(NCCc5ccccc5)ncnc43)[C@@H]1C[C@@H]2Cl (stereo partly drawn) [Compound 6k, (1S,4S,5S,7R)-5-Chloro-7-((6-(phenethylamino)-9H-purin-9-yl)methyl)bicyclo[2.2.1]heptan-2-ol] | 74 ± 8 µM | 48 ± 6 µM | > 75 µM | > 100 µM | > 100 µM | 25 ± 5.6 µM | 254 ± 21 µM | 185 ± 16 µM | 245 ± 18 µM | > 100 µM | > 100 µM | > 100 µM |  |
| COc1ncnc2c1ncn2C[C@H]1[C@@H]2CC(O)[C@H]1C[C@@H]2Cl (stereo partly drawn) [Compound 7a, (1S,4S,5S,7R)-5-Chloro-7-((6-methoxy-9H-purin-9-yl)methyl)bicyclo[2.2.1]heptan-2-ol] | 233 ± 33 µM | > 972 µM | > 972 µM | > 100 µM | > 100 µM | > 100 µM | > 972 µM | > 972 µM | > 972 µM | > 100 µM | > 100 µM | > 100 µM |  |
| CCOc1ncnc2c1ncn2C[C@H]1[C@@H]2CC(O)[C@H]1C[C@@H]2Cl (stereo partly drawn) [Compound 7b, (1S,4S,5S,7R)-5-Chloro-7-((6-ethoxy-9H-purin-9-yl)methyl)bicyclo[2.2.1]heptan-2-ol] | > 929 µM | 524 ± 63 µM | > 929 µM | > 100 µM | > 100 µM | > 100 µM | > 929 µM | > 929 µM | > 929 µM | > 100 µM | > 100 µM | > 100 µM |  |
| Nc1ncnc2c1ncn2/C=C1/C[C@H]1CO [III] |  |  |  |  |  |  |  |  |  |  |  |  | IC50 (HCMV): 1 to 2.1 µM; IC50 (EpsteinBarr virus): 0.2 µM |
| O=c1[nH]c(=O)n(CC2(CO)CC2CO)cc1C=CBr (centres unmarked) [II] |  |  |  |  |  |  |  |  |  |  |  |  | anti-VZV activity, IC50 (VZV): 0.027 µg/mL |
| Nc1nc2c(ncn2/C=C2/C[C@H]2CO)c(=O)[nH]1 [IV] |  |  |  |  |  |  |  |  |  |  |  |  | IC50 (HCMV): 0.04 to 2.1 µM; IC50 (EpsteinBarr virus): 0.3 µM |
| Nc1nc2c(ncn2CC2(CO)CC2CO)c(=O)[nH]1 (centres unmarked) [I] |  |  |  |  |  |  |  |  |  |  |  |  | antiherpetic activity in words (herpes): extremely potent antiherpetic activity |
| Nc1nc(Cl)c2nc[nH]c2n1 [V (6-Cl-2-amino-purine)] |  |  |  |  |  |  |  |  |  |  |  |  | IC50 Molt4/C8, cytostatic activity (Molt4/C8): 13.2 µg/mL (≈ 77.8 µM); IC50 L1210/0, cytostatic activity (L1210/0): 16.2 µg/mL (≈ 95.5 µM) |
| Nc1nc(Cl)c2nc[nH]c2n1 [VIII (6-Cl-2-aminopurine)] |  |  |  |  |  |  |  |  |  |  |  |  | EC50 (VZV/TK^- strain): 2.1 µM; EC50 (cytomegalovirus AD169): 0.44 µM; EC50 [9]: 0.39 µM |
| OCC(Cc1ccccc1)Nc1ncnc2c1ncn2C1CC2C(Cl)CC1C2CO (centres unmarked) [Xc] |  |  |  |  |  |  |  |  |  |  |  |  | EC50 against coxsackievirus B4 (coxsackievirus B4): 0.6 µg/mL (≈ 1.4 µM) |
| Nc1nc(O)c2ncn(COC(CO)CO)c2n1 [ganciclovir] |  |  |  |  |  |  |  |  |  |  |  |  | EC50 (cytomegalovirus AD169): 0.25 µM; EC50 [9]: 0.4 µM |
| (1S,4S,5S,7R)-5-Chloro-7-((6-((4-hydroxyphenethyl)amino)-9H-purin-9-yl)methyl)bicyclo[2.2.1]heptan-2-ol [Compound 6j] |  |  |  |  |  |  |  |  |  |  |  |  | IC50 [1]: > 234 µM; activity against HSV-1 in words [2]: active against herpes; IC50 [2]: 15 ± 2 µM; IC50 [3]: > 70 µM; IC50 (Yellow Fever Virus): > 100 µM; IC50 (Chikungunya Virus): > 100 µM; IC50 (Enterovirus 71): 42 ± 3.2 µM; CC50 (MDCK cells): 467 ± 28 µM; CC50 (cells [10]): > 100 µM; CC50 (cells [11]): > 100 µM; CC50 (cells [12]): > 100 µM |
